Experimental findings from publication PMC11125126, “Synthesis, Characterisation, and In Vitro Evaluation of Biocompatibility, Antibacterial and Antitumor Activity of Imidazolium Ionic Liquids” (Pharmaceutics, 2024) are described below.

This data set can be described thus: Thermogravimetric analysis (TGA), thermal stability. Format: physicochemical. Conditions: neat ILs; single-step degradation; 10 °C/min, nitrogen. The method, then: Thermal stability and kinetic parameters of the synthesised ILs were investigated using the TA instruments Q500 thermogravimetric analyser (Milan, Italy). A certain amount of sample (4–5 mg) was placed in a platinum pan and heated at 10 °C min^−1 from 40 to 600 °C under a flow of nitrogen (60 mL/min).
Thermogravimetric analyses were performed to evaluate the thermal stability of ILs and PVC/IL blends. Before testing, the samples were subjected to drying cycles in a vacuum stove for 24 h at 50–60 °C, according to the thermal features of ILs, mainly considering their melting points. The ILs C9mimBF4, C10mimBF4, C9mimDMSIP, and C10mimDMSIP, which are liquid at RT, were left to dry at 30 °C for 4–5 h. […] Considering this, the 40–600 °C degradation temperature range was adopted for the subsequent TGA analyses. […] Furthermore, platinum pans and nitrogen as purge gas were used, and the temperature at which 5% weight loss occurred was defined as Tonset, aiming to avoid the decomposition differences due to pan and gas types, as well as the uncertainty from the manual determination of the Tonset tangent point, respectively. Many features can influence the thermal stability of ILs, mainly the coordinating nature of the anion. Indeed, the highly coordinating halide anions (Cl, Br) display a thermal stability lower than that of poor coordinating anions (PF6). The type of cation core influences the thermal stability of ILs, with a decreasing temperature resistance in the following order: pyrrolidinium, imidazolium, pyridinium, and non-cyclic tetra-alkyl ammonium. The increasing alkyl chain length of the imidazolium cation and branching of the alkyl substituents induce a reduction in thermal stability. Furthermore, a decrease in thermal stability is determined by the presence of alkoxylated side chains in methylimidazolium, piperidinium, and pyrrolidinium cations.
As the industrial production of end products usually involves processing methodologies during which undesirable degradation processes could affect materials’ performance, the thermal stability of neat PVC and PVC/IL film blends was analysed. As detailed for TGA analyses of pure ILs, the stability of the PVC/IL blends was determined at heating runs of 10 °C/min from 40 to 600 °C under a nitrogen atmosphere using a platinum pan. These things considered, the temperature at 5% weight loss was considered as Tonset.

For the compound `CCCCCCCCCCn1cc[n+](C)c1.F[B-](F)(F)F` [C10mimBF4], the “Td, maximum degradation temperature” value was 417.2 °C.
